From US6596719B1 (Actelio Pharmaceuticals Ltd., priority 1999, dated 2003)
Where two headings read alike, the source gives them in different places.

Key:
[1] = target: T1, human recombinant ETA receptors (Homo sapiens, UniProt P25101); assay: Inhibition of endothelin binding to membranes from CHO cells carrying human ET receptors (ETA)
T1 construct: expressed in transfected cells; host or cells: CHO cells (microsomal membranes)
T1 sequence (P25101 21-427): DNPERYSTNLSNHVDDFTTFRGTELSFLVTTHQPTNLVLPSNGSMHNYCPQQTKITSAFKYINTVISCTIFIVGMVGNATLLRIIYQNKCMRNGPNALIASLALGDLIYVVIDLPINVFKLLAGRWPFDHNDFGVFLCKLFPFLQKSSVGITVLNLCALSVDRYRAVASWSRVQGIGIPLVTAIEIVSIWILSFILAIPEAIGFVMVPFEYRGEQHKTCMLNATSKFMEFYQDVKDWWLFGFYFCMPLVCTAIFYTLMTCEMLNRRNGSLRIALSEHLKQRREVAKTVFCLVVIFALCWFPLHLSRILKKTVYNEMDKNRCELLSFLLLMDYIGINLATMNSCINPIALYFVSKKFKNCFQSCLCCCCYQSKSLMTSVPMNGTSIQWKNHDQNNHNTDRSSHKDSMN

[2] = target: T2, human recombinant ETB receptors (Homo sapiens, UniProt P24530); assay: Inhibition of endothelin binding to membranes from CHO cells carrying human ET receptors (ETB)
T2 construct: expressed in transfected cells; host or cells: CHO cells (microsomal membranes)
T2 sequence (P24530 27-442): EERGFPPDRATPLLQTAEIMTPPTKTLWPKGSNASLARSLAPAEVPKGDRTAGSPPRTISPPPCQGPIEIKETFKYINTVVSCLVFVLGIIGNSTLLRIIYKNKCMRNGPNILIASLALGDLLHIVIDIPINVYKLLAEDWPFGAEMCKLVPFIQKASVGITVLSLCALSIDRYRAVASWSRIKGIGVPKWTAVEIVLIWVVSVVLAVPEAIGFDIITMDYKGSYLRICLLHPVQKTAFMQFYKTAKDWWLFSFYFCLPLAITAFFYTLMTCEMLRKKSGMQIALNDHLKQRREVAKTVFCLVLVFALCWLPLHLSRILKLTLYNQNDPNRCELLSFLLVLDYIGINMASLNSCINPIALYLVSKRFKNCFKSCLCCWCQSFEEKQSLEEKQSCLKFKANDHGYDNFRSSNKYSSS
Experimental: 1) Inhibition of Endothelin Binding to Membranes from CHO Cells Carrying Human ET Receptors:
For competition binding studies, membranes of CHO cells expressing human recombinant ETA or ETB receptors were used. Microsomal membranes from recombinant CHO cells were prepared and the binding assay made as previously described (Breu V., et al, FEBS Lett 1993; 334:210).
The assay was performed in 200 uL 50 mM Tris/HCl buffer, pH 7.4, including 25 mM MnCl2, 1 mM EDTA and 0.5% (w/v) BSA in polypropylene microtiter plates. […]. […] After two h, the membranes were filtered on, filterplates containing GF/C filters (Unifilterplates from Canberra Packard S. A. Zürich, Switzerland). To each well, 50 uL of scintillation cocktail was added (MicroScint 20, Canberra Packard S. A. Zürich, Switzerland) and the filter plates counted in a microplate counter (TopCount, Canberra Packard S. A. Zürich, Switzerland).
All the test compounds were dissolved, diluted and added in DMSO. […] […].

[3] = target: T3, ETA receptors (Rattus norvegicus, UniProt P26684); assay: Inhibition of endothelin-1-induced contractions on isolated rat aortic rings; conditions: for pA2 value ETA: rat aortic rings, contraction induced by endothelin-1, 10 min incubation
T3 sequence (P26684 21-426): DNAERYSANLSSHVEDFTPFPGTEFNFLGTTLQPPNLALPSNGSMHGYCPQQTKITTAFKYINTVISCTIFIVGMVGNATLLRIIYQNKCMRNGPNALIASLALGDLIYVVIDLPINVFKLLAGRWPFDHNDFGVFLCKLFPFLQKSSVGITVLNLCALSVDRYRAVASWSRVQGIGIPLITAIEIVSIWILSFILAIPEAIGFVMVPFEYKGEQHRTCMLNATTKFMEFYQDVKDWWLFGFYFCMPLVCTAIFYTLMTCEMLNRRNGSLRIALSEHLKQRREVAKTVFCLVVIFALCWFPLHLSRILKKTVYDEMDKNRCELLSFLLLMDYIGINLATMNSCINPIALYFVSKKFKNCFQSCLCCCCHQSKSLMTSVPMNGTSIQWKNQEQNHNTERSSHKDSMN

[4] = target: T4, ETB receptors (Rattus norvegicus, UniProt P21451); assay: Inhibition of sarafotoxin S6c-induced contractions on isolated rat tracheal rings; conditions: for pA2 value ETB: rat tracheal rings, contraction induced by sarafotoxin S6c, 10 min incubation
T4 sequence (P21451 27-442): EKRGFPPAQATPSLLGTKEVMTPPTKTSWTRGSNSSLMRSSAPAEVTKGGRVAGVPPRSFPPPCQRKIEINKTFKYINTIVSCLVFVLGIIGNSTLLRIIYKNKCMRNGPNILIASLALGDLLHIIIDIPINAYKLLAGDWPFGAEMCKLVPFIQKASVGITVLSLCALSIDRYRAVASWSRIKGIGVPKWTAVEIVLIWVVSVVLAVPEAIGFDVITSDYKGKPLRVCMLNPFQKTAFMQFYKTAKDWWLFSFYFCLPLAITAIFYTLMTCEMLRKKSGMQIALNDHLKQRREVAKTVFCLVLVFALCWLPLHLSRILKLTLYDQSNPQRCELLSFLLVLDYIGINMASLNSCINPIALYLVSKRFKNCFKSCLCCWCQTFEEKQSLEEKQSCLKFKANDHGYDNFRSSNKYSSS

[5] = membranes of CHO cells expressing human recombinant ETA receptors, 8 pM [125I]ET-1, 2 h at 20° C.
[6] = membranes of CHO cells expressing human recombinant ETB receptors, 8 pM [125I]ET-1, 2 h at 20° C.

CCS(=O)(=O)NCCOc1nc(-c2ncccn2)nc(NS(=O)(=O)c2ccc(C(C)C)cn2)c1Oc1ccccc1OC [Example 70, 5-isopropyl-N-[6-(2-(ethanesulfonylamino)-ethoxy)-5-(o-methoxyphenoxy)-2-(2-pyrimidinyl)-4-pyrimidinyl]-2-pyridine sulfonamide]
IC50 [1]: 282 nM
IC50 [2]: 2070 nM
Kb [3]: 891 nM

COc1ccccc1Oc1c(NS(=O)(=O)c2ccc(C(C)(C)C)cc2)nc(C2CC2)nc1OCCCNS(=O)(=O)c1cccs1 [Example 88, 4-tert.-butyl-N-[6-(3-(2-thiophenesulfonylamino)-propoxy)-5-(o-methoxyphenoxy)-2-cyclopropyl-4-pyrimidinyl]-benzene-sulfonamide]
pA2 value ETB [4]: 7.95
pA2 value ETA [3]: 6.16

CCS(=O)(=O)NCCOc1nc(C(F)(F)F)nc(NS(=O)(=O)c2ccc(C(C)C)cn2)c1Oc1ccccc1OC [Example 55, 5-i.-propyl-N-[6-(2-(ethanesulfonylamino)-ethoxy)-5-(o-methoxyphenoxy)-2-trifluoromethyl-4-pyrimidinyl]pyridine-2-sulfonamide]
pA2 value ETB [4]: 6.3
pA2 value ETA [3]: 6.2

COc1ccccc1Oc1c(NS(=O)(=O)c2ccc(C(C)C)cn2)nc(N2CCOCC2)nc1OCCNS(=O)(=O)c1ccc(C)cc1 [Example 60, 5-isopropyl-N-[6-(2-(4-methylbenzenesulfonylamino)-ethoxy)-5-(o-methoxyphenoxy)-2-(N-morpholino)-4-pyrimidinyl]-2-pyridine sulfonamide]
IC50 [1]: 1440 nM
IC50 [2]: 16 nM
pA2 value ETB [4]: 7.3

CCS(=O)(=O)NCCCOc1nc(C2CC2)nc(NS(=O)(=O)c2ccc(C(C)(C)C)cc2)c1Oc1ccccc1OC [Example 87]
IC50 [1, 5]: 48.1 nM
IC50 [2, 6]: 33.1 nM
pA2 value ETA [3]: 6.52

COc1ccccc1Oc1c(NS(=O)(=O)c2ccc(C(C)C)cn2)nc(-c2cc(OC)c(OC)c(OC)c2)nc1OCCNS(=O)(=O)c1ccc(C)cc1 [Example 11, 5-i.-propyl-N-[6-(ethoxy-2-(4-methylbenzenesulfonamido))-5-(o-methoxyphenoxy)-2-(3,4,5-trimethoxyphenyl)-4-pyrimidinyl]pyridine-2-sulfonamide]
IC50 [1, 5]: 5110 nM
IC50 [2]: 4.3 nM
pA2 value ETB [4]: 7.46

p-methyl-N-[6-(ethoxy-2-benzenesulfonamido)-5-(o-methoxyphenoxy)-2-(4-pyridyl)-4-pyrimidinyl]benzene-sulfonamide [Example 2]
IC50 [1, 5]: 1960 nM
IC50 [2, 6]: 1790 nM

COc1ccccc1Oc1c(NS(=O)(=O)c2ccc(C(C)(C)C)cc2)nc(-c2ccncc2)nc1OCCNS(=O)(=O)c1cccs1 [Example 51, 4-tert.-butyl-N-[6-(2-(thiophene-2-sulfonylamino)-ethoxy)-5-(o-methoxyphenoxy)-2-(4-pyridyl)-4-pyrimidinyl]-benzene-sulfonamide]
IC50 [1]: 3450 nM
IC50 [2]: 182 nM

CCS(=O)(=O)NCCCOc1nc(C2CC2)nc(NS(=O)(=O)c2ccc(C(C)C)cn2)c1Oc1ccccc1OC [Example 91, 5-i.-propyl-N-[6-(3-(ethanesulfonylamino)-propoxy)-5-(o-methoxyphenoxy)-2-cyclopropyl-4-pyrimidinyl]-pyridine-2-sulfonamide]
IC50 [1, 5]: 45.5 nM
IC50 [2, 6]: 103 nM

COc1ccccc1Oc1c(NS(=O)(=O)c2ccc(C(C)C)cn2)nc(C)nc1OCCNS(C)(=O)=O [Example 23, 5-i.-propyl-N-[6-(ethoxy-2-methanesulfonamido)-5-(o-methoxyphenoxy)-2-methyl-4-pyrimidinyl]pyridine-2-sulfonamide]
IC50 [1]: 76.1 nM
IC50 [2]: 52.7 nM

COc1ccccc1Oc1c(NS(=O)(=O)c2ccc(C(C)C)cn2)nc(C(F)(F)F)nc1OCCNS(=O)(=O)c1cccs1 [Example 54, 5-i.-propyl-N-[6-(2-((2-thiophene)-sulfonylamino)-ethoxy)-5-(o-methoxyphenoxy)-2-trifluoromethyl-4-pyrimidinyl]pyridine-2-sulfonamide]
IC50 [1]: 2410 nM
IC50 [2]: 603 nM

COc1ccccc1Oc1c(NS(=O)(=O)c2ccc(C(C)C)cn2)nc(-c2cc(OC)c(OC)c(OC)c2)nc1OCCNS(=O)(=O)c1cccs1 [Example 15, 5-i.-propyl-N-[6-(ethoxy-2-thiophenesulfonamido)-5-(o-methoxyphenoxy)-2-(3,4,5-trimethoxyphenyl)-4-pyrimidinyl]pyridine-2-sulfonamide]
IC50 [1, 5]: 1320 nM
IC50 [2]: 7.3 nM
Kb [4]: 40.7 nM

COc1ccccc1Oc1c(NS(=O)(=O)c2ccc(C(C)C)cn2)nc(N2CCOCC2)nc1OCCNS(=O)(=O)c1cccs1 [Example 42, 5-isopropyl-N-[6-(2-(2-thiophensulfonyl)-amino-ethoxy)-5-(o-methoxyphenoxy)-2-(N-morpholino)-4-pyrimidinyl]-2-pyridine sulfonamide]
IC50 [1, 5]: 587 nM
IC50 [2, 6]: 99 nM

COc1ccccc1Oc1c(NS(=O)(=O)c2ccc(C(C)(C)C)cc2)nc(-c2ncccn2)nc1OCCNS(=O)(=O)C(F)(F)F [Example 5, p-tert.-butyl-N-[6-(ethoxy-2-trifluoromethanesulfonamido)-5-(o-methoxyphenoxy)-2-(2-pyrimidinyl)-4-pyrimidinyl]benzene-sulfonamide]
IC50 [1]: 5560 nM
IC50 [2]: 356 nM

5-i-propyl-N-[6-(2-ethanesulfonylamino-ethoxy)-5-(o-methoxyphenoxy)-2-cyclopropyl-pyrimidin-4-yl]-pyridine-2-sulfonamide [Example 38]
IC50 [1, 5]: 80 nM
IC50 [2, 6]: 84 nM

COc1ccccc1Oc1c(NS(=O)(=O)c2ccc(C(C)(C)C)cc2)nc(C2CC2)nc1OCCNS(=O)(=O)c1ccc(C)cc1 [Example 41]
IC50 [1, 5]: 4900 nM
IC50 [2, 6]: 299 nM

CCS(=O)(=O)NCCCOc1nc(C2CC2)nc(NS(=O)(=O)c2ccc(C(C)(C)C)cc2)c1Oc1ccccc1OC [Example 79]
IC50 [1]: 37 nM
IC50 [2]: > 10000 nM

CCCS(=O)(=O)NCCOc1ncnc(NS(=O)(=O)c2ccc(C(C)(C)C)cc2)c1Oc1ccccc1OC [Example 30, 4-tert.-butyl-N-{6-[2-(1-propanesulfonyl-amino)-ethoxy]-5-(o-methoxy-phenoxy)-pyrimidin-4-yl}-benzenesulfonamide]
IC50 [1]: 484 nM
IC50 [2]: 288 nM

COc1ccccc1Oc1c(NS(=O)(=O)c2ccc(C(C)C)cn2)nc(C)nc1OCCNS(=O)(=O)c1ccc(C)cc1 [Example 21, 5-i.-propyl-N-[6-(ethoxy-2-p-toluenesulfonamido)-5-(o-methoxyphenoxy)-2-methyl-4-pyrmidinyl]pyridine-2-sulfonamide]
IC50 [1]: 881 nM
IC50 [2]: 21.8 nM
